Reference: patent US20250282770A1, “BIOLUMINESCENT PROBES TO TRACK STEM CELLS IN VIVO” (THE BOARD OF TRUSTEES OF THE UNIVERSITY OF ILLINOIS, priority 2024, published 2025)

Tests used:
[1] = Stability of AlDeLuc at acidic, neutral and alkaline pHs; format: physicochemical; conditions: 2 μM, then ALDH1A1 and luciferase
Description: Stability of AlDeLuc at Acidic, Neutral and Alkaline pHs. The stability of AlDeLuc (2 μM) to acidic, neutral and alkaline conditions were investigated in a black 96-well plate and monitored using the IVIS imaging system. AlDeLuc was incubated in 1 M HCl (acidic), 1 M NaCl (neutral, pH=7), or 1 M NaOH (alkaline) for one hour, neutralized, and diluted with 0.1 M potassium phosphate buffer (pH 7.4). To the black well-plate was added PBS (pH 7.4), NAD^+ (1 mM), ALDH1A1 (0.4 μM), and either the acidic-, neutral-, or alkaline-treated AlDeLuc. Immediately after, each well was treated with ATP-MgSO4 (45 μL, prepared by mixing 17.78 mM ATP-Mg and 35.56 mM MgSO4 in a 1:1 ratio in PBS buffer) and luciferase (5 μL, 1 mg/mL in PBS containing 10% glycerol) to initiate bioluminescence production. Light was collected immediately after mixing, and the signal enhancement was determined relative to control wells not treated with AlDeLuc. The total volume of each well was 200 μL (PBS (pH 7.4) with 0.2% DMSO). All data reported as the mean±standard deviation.

ALDH1A1 = molecular target: T1, ALDH1A1 (Homo sapiens, UniProt P00352); assay: Logic-gate activation of AlDeLuc by acid, ALDH1A1 and luciferase; dose dependence; format: biochemical
T1 construct: inferred from Ni-NTA purification; made in house; host or cells: E. coli BL21(DE3)
T1 sequence (P00352 1-501): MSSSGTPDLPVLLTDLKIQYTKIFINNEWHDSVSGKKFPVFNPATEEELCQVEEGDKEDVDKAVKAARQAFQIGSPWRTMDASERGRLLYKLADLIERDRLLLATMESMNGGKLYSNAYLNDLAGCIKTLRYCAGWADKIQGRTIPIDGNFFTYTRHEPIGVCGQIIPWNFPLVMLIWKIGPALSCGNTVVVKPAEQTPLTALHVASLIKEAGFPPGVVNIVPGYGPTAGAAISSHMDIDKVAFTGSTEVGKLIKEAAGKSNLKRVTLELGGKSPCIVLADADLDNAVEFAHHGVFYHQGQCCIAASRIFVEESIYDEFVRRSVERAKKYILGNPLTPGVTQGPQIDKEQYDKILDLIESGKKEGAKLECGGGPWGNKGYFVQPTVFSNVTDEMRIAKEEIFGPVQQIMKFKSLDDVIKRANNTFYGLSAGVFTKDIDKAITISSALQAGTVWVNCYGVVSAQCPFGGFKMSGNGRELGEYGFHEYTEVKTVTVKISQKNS
Description: Dose-dependent Enhancement of AlDeLuc. The response of ALDH1A1 (0.4 μM) against different concentrations of AlDeLuc was measured in a black 96-well plate and was monitored using the IVIS imaging system. Various stocks of AlDeLuc were generated so that 20 μL of the probe solution gave the desired concentration. Stocks were prepared by the following: AlDeLuc was first dissolved in DMSO followed by a 60 minute incubation in equal volume 1 M HCl. Subsequently, the reaction was neutralized with 1 M NaOH and diluted with PBS. To a black 96-well plate, TEA buffer (pH 7.4), NAD^+ (2.5 mM), and either […], 5 μM, 10 μM, or 50 μM of AlDeLuc was added. After 60 minutes, each well was treated with ATP-MgSO4 (45 μL, prepared by mixing 17.78 mM ATP-Mg and 35.56 mM MgSO4 in a 1:1 ratio in PBS buffer) and luciferase (5 μL, 1 mg/mL in PBS containing 10% glycerol) to initiate bioluminescence production. Light was collected immediately after mixing, and the signal enhancement was determined relative to control wells not treated with enzymes. The total volume of each well was 200 μL (TEA (pH 7.4) with 0.2% DMSO). All data reported as the mean±standard deviation (n=4).
Dose-dependent Activation of AlDeLuc by ALDH1A1. The response of AlDeLuc (5 μM) against different concentrations of ALDH1A1 was measured in a black 96-well plate and was monitored using the IVIS imaging system. To a black 96-well plate, PBS (pH 7.4), NAD^+, and either 0.05 μM, 0.1 μM, 0.4 μM, 2 μM, or 4 μM of ALDH1A1, was added AlDeLuc. Immediately after, each well was treated with ATP-MgSO4 (45 μL, prepared by mixing 17.78 mM ATP-Mg and 35.56 mM MgSO4 in a 1:1 ratio in PBS buffer) and luciferase (5 μL, 1 mg/mL in PBS containing 10% glycerol) to initiate bioluminescence production. Light was collected immediately after mixing, and the signal enhancement was determined relative to control wells not treated with enzymes. The total volume of each well was 200 μL (PBS (pH 7.4) with 0.2% DMSO). All data reported as the mean standard deviation (n=3).

[2] = tested on: mesenchymal stem cells (MSCs); assay: AlDeLuc in mesenchymal stem cells, lysed and treated with luciferase; format: cell-based; conditions: 20 μM, one hour, ~2.5×10^5 MSCs, lysed
Description: Testing commenced by incubating MSCs with AlDeLuc (20 μM). After one hour, the cells were lysed, treated with luciferase, and imaged. […] Moreover, we wanted to allow for any oxidized N,N-diethyl luciferin substrate to accumulate for the highest possible signal.

4T1-Luc cells = assay: MTT cytotoxicity assay; format: cell-based, murine; conditions: up to the highest concentration tested (100 μM); 2 hours
Description: MTT Cytotoxicity Assay. 48-well plates were seeded with 100,000 cells per well ([…]) and incubated at 37° C. with 5% CO2 for 16 hours (˜75% confluent). Media was removed and fresh RPMI 1640 media with 10% FBS containing 100, 50 25, 12.5, 6.25, 3.13, 1.56, or 0 μM AlDeLuc (1% DMSO final v/v) was added. The media was removed after two hours and replaced with 500 μL of 18:1 mixture of FBS-free RPMI 1640 and (3-(4,5-dimethylthiazol-2-yl)-2,5-diphenyltetrazolium bromide (MT, 5 mg/mL stock in PBS). The cells were incubated for one hour at the same conditions before the media was removed. DMSO (500 μL/well) was added, and the absorbance was read at 555 nm on a microplate reader. Viability was calculated by the absorbance relative to the vehicle control. Values are reported as the mean±standard deviation (n=3).

Structure (SMILES): CCN(CC)c1ccc2nc(C3=N[C@@H](C(OC)OC)CS3)sc2c1 [AlDeLuc, (S)-2-(4-(dimethoxymethyl)-4,5-dihydrothiazol-2-yl)-N,N-diethylbenzo[d]thiazol-6-amine]
- bioluminescence (acetal unmasking) ([1]; 1 M NaCl (neutral) one hour): no bioluminescence
- bioluminescence (acetal unmasking) ([1]; 1 M NaOH (alkaline) one hour): no bioluminescence
- signal intensity versus amount of ALDH1A1 (ALDH1A1; AlDeLuc 5 μM, ALDH1A1 0 to 4 μM): highest ALDH1A1 concentration showed the most intense signal
- signal intensity versus AlDeLuc concentration (ALDH1A1; AlDeLuc 2 to 50 μM, ALDH1A1 0.4 μM): concentration-dependent increase
- bioluminescent signal when acidic conditions and ALDH1A1 applied separately, compared to both (ALDH1A1; luciferase 0.02 mg/mL): significantly attenuated
- bioluminescence of treated cells [2]: indistinguishable from blank controls
- cell viability (MTT) (4T1-Luc cells): nontoxic
